Source: US20250073209A1, “COVALENT TARGETING OF RhoA FOR CANCER THERAPY” (The University of Hong Kong, priority 2023, published 2025)

What was measured:
RhoA = RhoA (Homo sapiens, UniProt P61586); experiment: Fluorescence assay of MANT-GTP binding onto RhoA; assay type: biochemical; settings: pre-incubation of RhoA with CL16
Protocol: FIGS. 10A and 10B are graphs showing GTP binding assay of RhoA (0.75 μg) with CL16 (FIG. 10A) and GTP-MANT (5.6 μM) (FIG. 10B) in the buffer solution (20 mM Tris, 50 mM NaCl, 10 mM MgCl2, pH 7.5).

HCT116 cells = experiment: Flow cytometry cell cycle analysis; assay type: cell-based, human; settings: HCT116, 24 h
Protocol: HCT116 cells were seeded onto 6-well plates (500,000 cells) and cultured overnight in complete medium at 37° C. with 5% CO2. After treatment with DMSO control or CL16 at the indicated concentration for 24 h, cells were harvested by trypsin digestion, washed with PBS, and fixed in 70% cold ethanol on ice for 30 minutes. The cells were then centrifuged at 250g for 5 min and resuspended in staining buffer (PBS with 0.05% Triton X-100) containing propidium iodide (50 μg/mL) and RNase (100 μg/mL) for 30 min at 37° C. in the dark. The cells were then filtered through a 40 μm strainer and analyzed by flow cytometry. Representative FACS plots were developed to illustrate the gating strategy in studying cell cycle. The NovoCyte Advanteon BVYG analyzer was used to acquire cell events, and the data were processed using NovoExpress software.
The molecular mechanisms of anticancer effects from CL16 were investigated. […] Immunoblotting of cell cycle checkpoint proteins in HCT116 cells underwent CL16 treatment for 24 h.

[1] = test system: HT29 cells with C16 Å knock-in; experiment: Wound healing assay on HT29 cells with RhoA C16A knock-in; assay type: cell-based, human; settings: 48 h
Protocol: For wound healing assay, HT29 cells were seeded in 90% confluency, a wound was scratched using a P-20 tip the next day. Cell debris was washed with PBS then aspirated. Then, complete DMEM medium with CL16 or Rhosin with corresponding concentration was added to the cells. Wound closure was recorded every 24 hours under light microscope with 10× objective and measurement of wound area was made by ImageJ.
HT29 cells with RhoA C16 Å knock-in were prepared by BrainVTA using the CRISPR-Cas9 technique. Briefly, HT29 cells were transfected with RhoA construct with mutated loci in CRISPR/Cas9 vector (U6-sa-sgRNA) using PEI. Cells were subsequently selected with 2 μg/mL puromycin and 800 μg/mL neomycin for 2 weeks. Monoclonal cells were then selected, propagated and subjected to Sanger sequencing to validate the homozygous C16 Å amino acid substitution ([…]) in RhoA gene.
The effects of CL16 in HT29 cells expressing RhoA WT protein and HT29 cells with RhoA C16 Å knock-in by CRISPR-Cas9 were investigated, respectively, to validate the molecular mechanism of RhoA inhibition and anti-cancer properties from CL16. […] HT29 cells expressing RhoA WT or C16 Å protein were incubated with solvent vehicle, CL16 or Rhosin in complete medium for 24 h. The cells were then washed, lysed, subjected to rhotekin pull-down and immunoblotted. […]

SW620 xenograft = experiment: Mouse SW620 xenograft model; assay type: in vivo
Protocol: FIG. 7A is a graph showing inhibition of tumor growth by CL16 in mouse HCT116 xenografts through intraperitoneal injection at 10 mg/kg (n=6 per group). FIG. 7B is a graph showing inhibition of tumor growth by CL16 in mouse HT29 xenografts through intraperitoneal injection at 10 mg/kg (n=7). FIG. 7C is a graph showing the body weight of mice with HT29 xenografts throughout the treatment with CL16. FIG. 7D is a graph showing inhibition of tumor growth by CL16 in mouse SW620 xenografts through intraperitoneal injection at 10 mg/kg (n=6 per group). FIG. 7E is a bar graph showing the tumor weight of harvested tumors from the treated mice with SW620 xenografts. FIG. 7F is a graph showing the body weight of mice with SW620 xenografts throughout the treatment with CL16. Statistical analysis using a two-tailed Student's t-test. *P<0.05.
7-week-old mice with weight around 20 g were inoculated subcutaneously with HCT116 (2×10^6 cells per mouse) or HT29 (3×10^6 cells per mouse) cells, in serum-free RMPI or Matrigel in PBS respectively. […] The tumor volume and body weight of the nude mice were measured throughout the treatment. The tumor volume was calculated by the equation: Volume (mm^3)=1×w^2/2, where 1 and w were the length and width of the tumor. At the end of the treatment, the mice were sacrificed and the tumor weight was measured. […]

orthotopic SL4 CRC = experiment: Immunocompetent orthotopic mouse CRC model (SL4 intracecal); assay type: in vivo
Excerpt: FIG. 13B is a graph showing the weight of tumors from the mice treated with vehicle (n=7) or CL16 (n=8) at the end point of the investigation of CL16 treatment. FIGS. 13C-13H are graphs showing the scores of the immunohistochemistry staining of CD3 (FIG. 13C), CD4 (FIG. 13D), CD8 (FIG. 13E), Ki67 (FIG. 13F), cleaved caspase-3 (FIG. 13G) and VEGFR2 (FIG. 13H) on tumor tissues from the vehicle- or CL16-treated mice, FIG. 131 is a graph showing the changes in the body weight of mice with orthotopic SL4 CRC model treated with solvent vehicle or CL16 through i.p. injection. Antitumor effects of CL16 in an immunocompetent, orthotopic mouse CRC model, which was established by the inoculation of mouse CRC cells, SL4, intracecally were examined (FIG. 20). […] Immunohistochemistry staining of CD3, CD4, CD8, Ki67 was conducted, with cleaved caspase-3 and VEGFR2 on tumor tissues from the vehicle- or CL16-treated mice. […] To the best of our knowledge, this is the first reported study showing an increase in immunity through RhoA inhibition in CRC cells by a small molecule compound.

Sequence of RhoA (P61586 whole entry): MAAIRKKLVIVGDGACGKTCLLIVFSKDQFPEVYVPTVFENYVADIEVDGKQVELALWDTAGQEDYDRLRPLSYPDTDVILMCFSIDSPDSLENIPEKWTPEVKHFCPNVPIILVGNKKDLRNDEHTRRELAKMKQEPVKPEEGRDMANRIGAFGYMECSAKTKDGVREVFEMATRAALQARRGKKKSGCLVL

O=C(CCl)N1N=C(c2cc3ccccc3o2)CC1c1ccco1 (stereo not drawn) [CL16]
MANT-GTP binding onto RhoA (increase in fluorescence intensity) (RhoA): significantly slowed down the increase in fluorescence intensity | G2 phase cell population (HCT116 cells): significant increase in G2 phase cell population | cell migration [1]: no inhibitory effects | body weight, treated vs untreated (SW620 xenograft; SW620 xenografts, FIG. 7F): no observable difference | tumor growth vs vehicle control (SW620 xenograft; nude mice, 10 mg/kg intraperitoneal): significantly inhibited tumor growth | body weight (orthotopic SL4 CRC; i.p. injection): no significant changes in the body weight | tumor weight (orthotopic SL4 CRC; i.p. injection, end point): significantly lower tumor weight | organ damage in kidney tissue (orthotopic SL4 CRC; treated mice): no organ damages in the kidney tissue | Ki67 in tumor tissues (orthotopic SL4 CRC; treated vs vehicle): decrease in Ki67 | cleaved caspase-3 immunohistochemistry in tumor tissues (orthotopic SL4 CRC; treated vs vehicle): elevated level | CD3 immunohistochemistry of tumor tissues (orthotopic SL4 CRC; tumor tissues): increases | CD4 immunohistochemistry of tumor tissues (orthotopic SL4 CRC; tumor tissues): increases | CD8 immunohistochemistry of tumor tissues (orthotopic SL4 CRC; tumor tissues): increases | VEGFR2 level, immunohistochemistry (orthotopic SL4 CRC; tumor tissues): decrease in VEGFR2 level | tumor metastasis to liver (orthotopic SL4 CRC; vs control mice): prohibited the tumor metastasis
